Common to all, as to assay: relative viability (nuclei count vs DMSO), 5 days (fraction); higher = more cells survive
Compound in test [1]: Cn1c(Nc2ccc(C(F)(F)F)cc2)nc2cc(Oc3ccnc(-c4ncc(C(F)(F)F)[nH]4)c3)ccc21 [RAF265] + CC(C)C[C@H](NC(=O)[C@H](Cc1ccccc1)NC(=O)c1cnccn1)B(O)O [Bortezomib] (partner 0.002 µM)
A digest of the protocol:
(§1)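 Medians of duplicate plates are given as relative viability. That measure is the nuclei count in treated wells divided by the count in vehicle wells. Counts were taken on 4× images of lung cancer cell lines in 1536-well plates, 5 days after pin-tool dosing the day after seeding with one drug alone or a fixed anchor-drug dose plus five library-drug doses (not always all listed) in √10 steps.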

Compound in test [2]: Cn1c(Nc2ccc(C(F)(F)F)cc2)nc2cc(Oc3ccnc(-c4ncc(C(F)(F)F)[nH]4)c3)ccc21 [RAF265] + COc1cccc2cc(-c3nc([C@H]4CC[C@H](C(=O)O)CC4)n4ncnc(N)c34)[nH]c12 [OSI-027] (partner 0.5 µM)
A digest of the protocol: as §1

Compound in test [3]: Cc1ccc(-n2nc(C(C)(C)C)cc2NC(=O)Nc2ccc(OCCN3CCOCC3)c3ccccc23)cc1 [Doramapimod] + CC(C)C[C@H](NC(=O)[C@H](Cc1ccccc1)NC(=O)c1cnccn1)B(O)O [Bortezomib] (partner 0.002 µM)
The method, boiled down:
as §1

Compound in test [4]: C1=CC=C2C(=C1)C=CC(=C2SSC3=C(C=CC4=CC=CC=C43)O)O [IPA-3] + O=C(CCCCCCC(=O)Nc1ccccc1)NO [Vorinostat] (partner 1 µM)
The method, boiled down:
as §1

Take UMC-11: the relative viability came to 0.624 in test [1] (first compound 0.01 µM); 0.724 in test [1] (first compound 0.03162 µM); 0.758 in test [1] (first compound 0.1 µM); 0.745 in test [1] (first compound 0.3162 µM); 0.537 in test [1] (first compound 1 µM); 0.491 in test [2] (first compound 0.01 µM). In addition, the relative viability came to 0.48 in test [2] (first compound 0.03162 µM); 0.464 in test [2] (first compound 0.1 µM); 0.457 in test [2] (first compound 0.3162 µM); 0.378 in test [2] (first compound 1 µM); 0.772 in test [3] (first compound 0.02 µM); 0.784 in test [3] (first compound 0.06325 µM). Also, the relative viability in test [3] (first compound 0.2 µM) was determined as 0.564; in test [3] (first compound 0.6325 µM), 0.675; in test [3] (first compound 2 µM), 0.568; in test [4] (first compound 0.2 µM), 0.395; in test [4] (first compound 0.6325 µM), 0.425; in test [4] (first compound 2 µM), 0.389. For the same cell line, the relative viability in test [4] (first compound 6.325 µM) was 0.394; in test [4] (first compound 20 µM), 0.409.

Source of the values: the supplement of paper PMC10307832.
